From ChEMBL document CHEMBL1134157, “General synthesis of alpha-substituted 3-bisaryloxy propionic acid derivatives as specific MMP inhibitors” (Bioorg Med Chem Lett, 2001)

Target: 72 kDa type IV collagenase (Homo sapiens, UniProt P08253)
Assay: Inhibition of Matrix metalloprotease-2
Conditions: not given

Sequence of 72 kDa type IV collagenase (P08253 whole entry): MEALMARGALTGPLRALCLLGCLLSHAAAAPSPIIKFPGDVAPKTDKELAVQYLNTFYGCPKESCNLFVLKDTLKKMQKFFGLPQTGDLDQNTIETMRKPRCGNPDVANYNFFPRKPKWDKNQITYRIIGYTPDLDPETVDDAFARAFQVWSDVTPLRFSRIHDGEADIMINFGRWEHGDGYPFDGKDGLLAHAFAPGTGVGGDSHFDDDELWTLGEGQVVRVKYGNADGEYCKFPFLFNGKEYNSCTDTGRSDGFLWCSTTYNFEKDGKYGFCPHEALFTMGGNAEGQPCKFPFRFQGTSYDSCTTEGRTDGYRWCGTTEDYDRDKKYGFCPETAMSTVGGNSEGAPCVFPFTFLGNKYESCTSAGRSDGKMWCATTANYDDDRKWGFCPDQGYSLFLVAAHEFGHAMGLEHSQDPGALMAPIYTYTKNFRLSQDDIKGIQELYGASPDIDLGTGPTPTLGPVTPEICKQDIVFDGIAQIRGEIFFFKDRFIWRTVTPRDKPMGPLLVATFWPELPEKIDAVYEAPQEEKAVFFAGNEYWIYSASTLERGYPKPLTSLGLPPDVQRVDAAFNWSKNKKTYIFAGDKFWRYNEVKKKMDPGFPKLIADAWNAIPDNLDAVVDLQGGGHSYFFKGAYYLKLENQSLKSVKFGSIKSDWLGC

IC50	SMILES
24 nM	O=C(NO)C(CCn1c(=O)[nH]c2ccccc2c1=O)COc1ccc(-c2ccccc2)cc1 (stereo not drawn)
3 nM	O=C(NO)C(CCN1C(=O)c2ccccc2C1=O)COc1ccc(-c2ccccc2)cc1 (stereo not drawn)
0.4 nM	N#Cc1ccc(-c2ccc(OCC(CCn3nnc4ccccc4c3=O)C(=O)NO)cc2)cc1 (stereo not drawn)
82 nM	O=C(NO)C(CCCN1C(=O)c2ccccc2C1=O)COc1ccc(-c2ccccc2)cc1 (stereo not drawn)
0.5 nM	O=C(NO)C(CCn1nnc2ccccc2c1=O)COc1ccc(-c2ccccc2)cc1 (stereo not drawn)
49 nM	N#Cc1ccc(-c2ccc(OCCC(=O)NO)cc2)cc1

SMILES	IC50
O=C(NO)C(CCn1nnc2ccccc2c1=O)COCCc1ccc(-c2ccc(Cl)cc2)cc1 (stereo not drawn)	25 nM
O=C(NO)C(CCn1ncc2ccccc2c1=O)COc1ccc(-c2ccccc2)cc1 (stereo not drawn)	6 nM
O=C(NO)C(CCN1C(=O)c2ccccc2S1(=O)=O)COc1ccc(-c2ccccc2)cc1 (stereo not drawn)	7 nM
O=C(NO)C(CCn1nnc2ccccc2c1=O)COc1ccc(-c2ccc(Cl)cc2)cc1 (stereo not drawn)	0.1 nM
CN1C(=O)N(CCC(COc2ccc(-c3ccccc3)cc2)C(=O)NO)C(=O)C1(C)C (stereo not drawn)	36 nM

Target: Collagenase 3 (Homo sapiens, UniProt P45452)
Assay: Inhibition of Matrix metalloprotease-13
Conditions: not given

SMILES	IC50
O=C(NO)C(CCn1nnc2ccccc2c1=O)COCCc1ccc(-c2ccc(Cl)cc2)cc1 (stereo not drawn)	67 nM
O=C(NO)C(CCn1c(=O)[nH]c2ccccc2c1=O)COc1ccc(-c2ccccc2)cc1 (stereo not drawn)	65 nM
O=C(NO)C(CCN1C(=O)c2ccccc2C1=O)COc1ccc(-c2ccccc2)cc1 (stereo not drawn)	7 nM
O=C(NO)C(CCn1ncc2ccccc2c1=O)COc1ccc(-c2ccccc2)cc1 (stereo not drawn)	101 nM
O=C(NO)C(CCN1C(=O)c2ccccc2S1(=O)=O)COc1ccc(-c2ccccc2)cc1 (stereo not drawn)	42 nM
O=C(NO)C(CCn1nnc2ccccc2c1=O)COc1ccc(-c2ccc(Cl)cc2)cc1 (stereo not drawn)	0.016 nM
N#Cc1ccc(-c2ccc(OCC(CCn3nnc4ccccc4c3=O)C(=O)NO)cc2)cc1 (stereo not drawn)	0.6 nM
CN1C(=O)N(CCC(COc2ccc(-c3ccccc3)cc2)C(=O)NO)C(=O)C1(C)C (stereo not drawn)	84 nM
O=C(NO)C(CCn1nnc2ccccc2c1=O)COc1ccc(-c2ccccc2)cc1 (stereo not drawn)	3 nM
N#Cc1ccc(-c2ccc(OCCC(=O)NO)cc2)cc1	64 nM

Target: T1, Interstitial collagenase (Homo sapiens, UniProt P03956)
T1 sequence (P03956 whole entry): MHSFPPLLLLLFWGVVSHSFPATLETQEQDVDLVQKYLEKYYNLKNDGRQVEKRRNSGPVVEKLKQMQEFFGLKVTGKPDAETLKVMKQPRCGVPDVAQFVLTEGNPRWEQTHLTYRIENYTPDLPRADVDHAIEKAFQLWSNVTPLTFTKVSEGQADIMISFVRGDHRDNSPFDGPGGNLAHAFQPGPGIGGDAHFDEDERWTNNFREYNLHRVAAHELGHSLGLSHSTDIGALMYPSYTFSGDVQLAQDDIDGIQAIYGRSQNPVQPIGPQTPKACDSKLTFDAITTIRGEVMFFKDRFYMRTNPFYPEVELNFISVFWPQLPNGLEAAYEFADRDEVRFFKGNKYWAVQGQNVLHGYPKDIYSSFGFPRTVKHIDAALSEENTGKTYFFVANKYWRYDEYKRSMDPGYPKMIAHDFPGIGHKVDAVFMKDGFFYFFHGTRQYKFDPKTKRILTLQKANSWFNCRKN
Assay: Inhibition ofMatrix metalloprotease-1
Conditions: not given

SMILES	IC50
CN1C(=O)N(CCC(COc2ccc(-c3ccccc3)cc2)C(=O)NO)C(=O)C1(C)C (stereo not drawn)	> 1000 nM

Target: Stromelysin-1 (Homo sapiens, UniProt P08254)
Sequence (P08254 whole entry): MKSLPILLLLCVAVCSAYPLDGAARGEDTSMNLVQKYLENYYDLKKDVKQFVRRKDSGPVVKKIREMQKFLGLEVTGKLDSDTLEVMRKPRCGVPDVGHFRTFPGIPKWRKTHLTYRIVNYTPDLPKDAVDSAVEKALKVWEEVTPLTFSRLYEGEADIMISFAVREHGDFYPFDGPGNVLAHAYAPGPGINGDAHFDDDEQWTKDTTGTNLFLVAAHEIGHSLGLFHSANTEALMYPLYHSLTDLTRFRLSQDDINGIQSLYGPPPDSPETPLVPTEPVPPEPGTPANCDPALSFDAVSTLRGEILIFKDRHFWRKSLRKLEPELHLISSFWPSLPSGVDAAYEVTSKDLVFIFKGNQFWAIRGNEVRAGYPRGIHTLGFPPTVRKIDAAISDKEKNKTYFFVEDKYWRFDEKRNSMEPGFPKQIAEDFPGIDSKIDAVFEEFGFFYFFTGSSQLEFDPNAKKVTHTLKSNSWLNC
Assay: Inhibition of Matrix metalloprotease-3
Conditions: not given

IC50	SMILES
69 nM	O=C(NO)C(CCn1c(=O)[nH]c2ccccc2c1=O)COc1ccc(-c2ccccc2)cc1 (stereo not drawn)
16 nM	O=C(NO)C(CCN1C(=O)c2ccccc2C1=O)COc1ccc(-c2ccccc2)cc1 (stereo not drawn)
1.1 nM	N#Cc1ccc(-c2ccc(OCC(CCn3nnc4ccccc4c3=O)C(=O)NO)cc2)cc1 (stereo not drawn)
313 nM	O=C(NO)C(CCCN1C(=O)c2ccccc2C1=O)COc1ccc(-c2ccccc2)cc1 (stereo not drawn)
5 nM	O=C(NO)C(CCn1nnc2ccccc2c1=O)COc1ccc(-c2ccccc2)cc1 (stereo not drawn)
47 nM	N#Cc1ccc(-c2ccc(OCCC(=O)NO)cc2)cc1

SMILES	IC50
O=C(NO)C(CCn1nnc2ccccc2c1=O)COCCc1ccc(-c2ccc(Cl)cc2)cc1 (stereo not drawn)	4.3 nM
O=C(NO)C(CCn1ncc2ccccc2c1=O)COc1ccc(-c2ccccc2)cc1 (stereo not drawn)	62 nM
O=C(NO)C(CCN1C(=O)c2ccccc2S1(=O)=O)COc1ccc(-c2ccccc2)cc1 (stereo not drawn)	23 nM
O=C(NO)C(CCn1nnc2ccccc2c1=O)COc1ccc(-c2ccc(Cl)cc2)cc1 (stereo not drawn)	3.2 nM
CN1C(=O)N(CCC(COc2ccc(-c3ccccc3)cc2)C(=O)NO)C(=O)C1(C)C (stereo not drawn)	71 nM

Tested on: Homo sapiens
Assay: […] absorption in Caco-2 cell line monolayers was determined
Assay type: ADME
Conditions: not given

A	SMILES
96%	N#Cc1ccc(-c2ccc(OCC(CCn3nnc4ccccc4c3=O)C(=O)NO)cc2)cc1 (stereo not drawn)
80%	O=C(NO)C(CCn1nnc2ccccc2c1=O)COc1ccc(-c2ccccc2)cc1 (stereo not drawn)

SMILES	A
O=C(NO)C(CCn1nnc2ccccc2c1=O)COc1ccc(-c2ccc(Cl)cc2)cc1 (stereo not drawn)	75%

Target: T1, Interstitial collagenase
Assay: Inhibition of Matrix metalloprotease-1
Conditions: not given

IC50	SMILES
768 nM	O=C(NO)C(CCN1C(=O)c2ccccc2C1=O)COc1ccc(-c2ccccc2)cc1 (stereo not drawn)
116 nM	N#Cc1ccc(-c2ccc(OCC(CCn3nnc4ccccc4c3=O)C(=O)NO)cc2)cc1 (stereo not drawn)
> 1000 nM	O=C(NO)C(CCCN1C(=O)c2ccccc2C1=O)COc1ccc(-c2ccccc2)cc1 (stereo not drawn)
31 nM	O=C(NO)C(CCn1nnc2ccccc2c1=O)COc1ccc(-c2ccccc2)cc1 (stereo not drawn)
> 10 nM	N#Cc1ccc(-c2ccc(OCCC(=O)NO)cc2)cc1

SMILES	IC50
O=C(NO)C(CCn1ncc2ccccc2c1=O)COc1ccc(-c2ccccc2)cc1 (stereo not drawn)	> 10000 nM
O=C(NO)C(CCN1C(=O)c2ccccc2S1(=O)=O)COc1ccc(-c2ccccc2)cc1 (stereo not drawn)	> 100000 nM
O=C(NO)C(CCn1nnc2ccccc2c1=O)COc1ccc(-c2ccc(Cl)cc2)cc1 (stereo not drawn)	74 nM

Tested on: not listed separately
Assay: Metabolic bioavailability was determined
Assay type: ADME, organism-based
Conditions: in vivo

SMILES	MF
O=C(NO)C(CCn1nnc2ccccc2c1=O)COCCc1ccc(-c2ccc(Cl)cc2)cc1 (stereo not drawn)	23%
O=C(NO)C(CCn1c(=O)[nH]c2ccccc2c1=O)COc1ccc(-c2ccccc2)cc1 (stereo not drawn)	52%
O=C(NO)C(CCn1ncc2ccccc2c1=O)COc1ccc(-c2ccccc2)cc1 (stereo not drawn)	13%
O=C(NO)C(CCN1C(=O)c2ccccc2S1(=O)=O)COc1ccc(-c2ccccc2)cc1 (stereo not drawn)	30%
O=C(NO)C(CCn1nnc2ccccc2c1=O)COc1ccc(-c2ccc(Cl)cc2)cc1 (stereo not drawn)	35%
N#Cc1ccc(-c2ccc(OCC(CCn3nnc4ccccc4c3=O)C(=O)NO)cc2)cc1 (stereo not drawn)	42%
CN1C(=O)N(CCC(COc2ccc(-c3ccccc3)cc2)C(=O)NO)C(=O)C1(C)C (stereo not drawn)	17%
O=C(NO)C(CCn1nnc2ccccc2c1=O)COc1ccc(-c2ccccc2)cc1 (stereo not drawn)	29%

Target: Matrix metalloproteinase-9 (Homo sapiens, UniProt P14780)
Sequence (P14780 whole entry): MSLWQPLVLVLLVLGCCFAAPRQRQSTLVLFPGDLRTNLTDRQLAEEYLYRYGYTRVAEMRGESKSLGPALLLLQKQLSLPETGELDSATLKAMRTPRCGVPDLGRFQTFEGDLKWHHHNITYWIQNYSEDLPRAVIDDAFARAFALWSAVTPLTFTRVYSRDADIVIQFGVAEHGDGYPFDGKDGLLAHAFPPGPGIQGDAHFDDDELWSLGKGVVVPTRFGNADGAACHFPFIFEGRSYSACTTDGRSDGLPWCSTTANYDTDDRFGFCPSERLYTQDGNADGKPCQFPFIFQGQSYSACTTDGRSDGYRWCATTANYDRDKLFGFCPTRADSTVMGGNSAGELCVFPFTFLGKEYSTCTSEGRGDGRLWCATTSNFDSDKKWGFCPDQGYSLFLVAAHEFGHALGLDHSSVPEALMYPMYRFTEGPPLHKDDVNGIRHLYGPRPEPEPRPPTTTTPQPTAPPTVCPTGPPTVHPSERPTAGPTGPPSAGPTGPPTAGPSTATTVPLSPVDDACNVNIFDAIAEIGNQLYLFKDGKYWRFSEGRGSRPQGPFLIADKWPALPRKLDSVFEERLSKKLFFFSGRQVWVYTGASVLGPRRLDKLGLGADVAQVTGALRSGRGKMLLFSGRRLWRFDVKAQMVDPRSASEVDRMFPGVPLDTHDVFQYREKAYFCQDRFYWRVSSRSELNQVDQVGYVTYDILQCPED
Assay: Inhibition of Matrix metalloprotease-9
Conditions: not given

IC50	SMILES
25 nM	O=C(NO)C(CCn1c(=O)[nH]c2ccccc2c1=O)COc1ccc(-c2ccccc2)cc1 (stereo not drawn)
5 nM	O=C(NO)C(CCN1C(=O)c2ccccc2C1=O)COc1ccc(-c2ccccc2)cc1 (stereo not drawn)
0.6 nM	N#Cc1ccc(-c2ccc(OCC(CCn3nnc4ccccc4c3=O)C(=O)NO)cc2)cc1 (stereo not drawn)
221 nM	O=C(NO)C(CCCN1C(=O)c2ccccc2C1=O)COc1ccc(-c2ccccc2)cc1 (stereo not drawn)
1 nM	O=C(NO)C(CCn1nnc2ccccc2c1=O)COc1ccc(-c2ccccc2)cc1 (stereo not drawn)
655 nM	N#Cc1ccc(-c2ccc(OCCC(=O)NO)cc2)cc1

SMILES	IC50
O=C(NO)C(CCn1nnc2ccccc2c1=O)COCCc1ccc(-c2ccc(Cl)cc2)cc1 (stereo not drawn)	3.6 nM
O=C(NO)C(CCn1ncc2ccccc2c1=O)COc1ccc(-c2ccccc2)cc1 (stereo not drawn)	33 nM
O=C(NO)C(CCN1C(=O)c2ccccc2S1(=O)=O)COc1ccc(-c2ccccc2)cc1 (stereo not drawn)	16 nM
O=C(NO)C(CCn1nnc2ccccc2c1=O)COc1ccc(-c2ccc(Cl)cc2)cc1 (stereo not drawn)	0.6 nM
CN1C(=O)N(CCC(COc2ccc(-c3ccccc3)cc2)C(=O)NO)C(=O)C1(C)C (stereo not drawn)	199 nM
